# From patent publication US20220400676A1, “HERBICIDAL COMPOUNDS” (SYNGENTA CROP PROTECTION AG, priority 2019, published 2022)
# Experiments:
# [1] = test system: Amaranthus retoflexus (AMARE); test: Post-emergence herbicidal glasshouse test; type: in vivo; conditions: 250 g/ha, evaluated after 13 days
# Protocol: (§1) Seeds of a variety of test species are sown in standard soil in pots Amaranthus retoflexus (AMARE), Echinochloa crus-galli (ECHCG), Setaria faberi (SETFA)). After cultivation for one day (pre-emergence) or after 8 days cultivation (post-emergence) under controlled conditions in a glasshouse (at 24/16° C., day/night; 14 hours light; 65% humidity), the plants are sprayed with an aqueous spray solution derived from the formulation of the technical active ingredient in acetone/water (50:50) solution containing 0.5% Tween 20 (polyoxyethelyene sorbitan monolaurate, CAS RN 9005-64-5). Compounds are applied at 250 g/ha unless otherwise stated. The test plants are then grown in a glasshouse under controlled conditions in a glasshouse (at 24/16° C., day/night; 14 hours light; 65% humidity) and watered twice daily. After 13 days for pre- and post-emergence, the test is evaluated for the percentage damage caused to the plant. The biological activities are shown in the following table on a five-point scale (5=81-100%; 4=61-80%; 3=41-60%; 2=21-40%; 1=0-20%).
# [2] = test system: Echinochloa crus-galli (ECHCG); test: Post-emergence herbicidal glasshouse test; type: in vivo; conditions: 250 g/ha, evaluated after 13 days
# Protocol: as §1
# [3] = test system: Setaria faberi (SETFA); test: Post-emergence herbicidal glasshouse test; type: in vivo; conditions: 250 g/ha, evaluated after 13 days
# Protocol: as §1
# [4] = test system: Amaranthus retoflexus (AMARE); test: Pre-emergence herbicidal glasshouse test; type: in vivo; conditions: 250 g/ha, evaluated after 13 days
# Protocol: as §1
# [5] = test system: Echinochloa crus-galli (ECHCG); test: Pre-emergence herbicidal glasshouse test; type: in vivo; conditions: 250 g/ha, evaluated after 13 days
# Protocol: as §1
# [6] = test system: Setaria faberi (SETFA); test: Pre-emergence herbicidal glasshouse test; type: in vivo; conditions: 250 g/ha, evaluated after 13 days
# Protocol: as §1
# [7] = test system: AMARE; test: Comparative Test (Post-Emergence), weed; type: in vivo, Amaranthus retoflexus
# Protocol: as §1
# [8] = test system: ZEAMX; test: Comparative Test (Post-Emergence), crop; type: in vivo, corn
smiles,measurement,setting,value
CNc1ncnc(Oc2cccc(F)c2-c2cc(C(F)F)no2)c1Cl [Compound 2.002],"percentage damage caused to the plant, five-point scale, AMARE",[1],2 (2=21-40%)
same,"percentage damage caused to the plant, five-point scale, ECHCG",[2],1 (1=0-20%)
same,"percentage damage caused to the plant, five-point scale, SETFA",[3],1 (1=0-20%)
same,"percentage damage caused to the plant, five-point scale, AMARE",[4],2 (2=21-40%)
same,"percentage damage caused to the plant, five-point scale, ECHCG",[5],1 (1=0-20%)
same,"percentage damage caused to the plant, five-point scale, SETFA",[6],1 (1=0-20%)
COc1cc(Oc2cccc(Cl)c2-c2cc(C(F)F)no2)ncn1 [Compound 2.004],"percentage damage caused to the plant, five-point scale, AMARE",[1],4 (4=61-80%)
same,"percentage damage caused to the plant, five-point scale, ECHCG",[2],4 (4=61-80%)
same,"percentage damage caused to the plant, five-point scale, SETFA",[3],4 (4=61-80%)
same,"percentage damage caused to the plant, five-point scale, AMARE",[4],5 (5=81-100%)
same,"percentage damage caused to the plant, five-point scale, ECHCG",[5],5 (5=81-100%)
same,"percentage damage caused to the plant, five-point scale, SETFA",[6],5 (5=81-100%)
CNc1cc(Oc2cccc(F)c2-c2cc(C(F)F)no2)ncn1 [Compound 2.005],"percentage damage caused to the plant, five-point scale, AMARE",[1],2 (2=21-40%)
same,"percentage damage caused to the plant, five-point scale, ECHCG",[2],2 (2=21-40%)
same,"percentage damage caused to the plant, five-point scale, SETFA",[3],2 (2=21-40%)
same,"percentage damage caused to the plant, five-point scale, AMARE",[4],2 (2=21-40%)
same,"percentage damage caused to the plant, five-point scale, ECHCG",[5],2 (2=21-40%)
same,"percentage damage caused to the plant, five-point scale, SETFA",[6],2 (2=21-40%)
COc1cc(OC)nc(Oc2cccc(F)c2-c2cc(C(F)F)no2)n1,% Phytotoxicity AMARE,[7]; rate 16 g/ha,0%
same,% Phytotoxicity AMARE,[7]; rate 33 g/ha,0%
same,% Phytotoxicity AMARE,[7]; rate 250 g/ha,0%
same,% Phytotoxicity ZEAMX,[8]; rate 16 g/ha,0%
same,% Phytotoxicity ZEAMX,[8]; rate 33 g/ha,0%
same,% Phytotoxicity ZEAMX,[8]; rate 250 g/ha,0%
Cc1ncnc(Oc2cccc(F)c2-c2cc(C(F)F)co2)c1F [Compound 2.008],"percentage damage caused to the plant, five-point scale, AMARE",[1],3 (3=41-60%)
same,"percentage damage caused to the plant, five-point scale, ECHCG",[2],1 (1=0-20%)
same,"percentage damage caused to the plant, five-point scale, SETFA",[3],1 (1=0-20%)
same,"percentage damage caused to the plant, five-point scale, AMARE",[4],4 (4=61-80%)
same,"percentage damage caused to the plant, five-point scale, ECHCG",[5],4 (4=61-80%)
same,"percentage damage caused to the plant, five-point scale, SETFA",[6],4 (4=61-80%)
COc1ccnc(Oc2cccc(F)c2-c2cc(C(F)F)no2)n1,% Phytotoxicity AMARE,[7]; rate 16 g/ha,0%
same,% Phytotoxicity AMARE,[7]; rate 63 g/ha,10%
same,% Phytotoxicity AMARE,[7]; rate 250 g/ha,20%
same,% Phytotoxicity ZEAMX,[8]; rate 16 g/ha,0%
same,% Phytotoxicity ZEAMX,[8]; rate 63 g/ha,10%
same,% Phytotoxicity ZEAMX,[8]; rate 250 g/ha,20%
COc1cc(Oc2cccc(F)c2-c2cc(C(F)F)no2)ncn1 [drawing 58],% Phytotoxicity AMARE,[7]; rate 16 g/ha,60%
same,% Phytotoxicity AMARE,[7]; rate 63 g/ha,60%
same,% Phytotoxicity AMARE,[7]; rate 250 g/ha,80%
same,% Phytotoxicity ZEAMX,[8]; rate 16 g/ha,0%
same,% Phytotoxicity ZEAMX,[8]; rate 63 g/ha,10%
same,% Phytotoxicity ZEAMX,[8]; rate 250 g/ha,10%
COc1cc(Oc2cccc(Br)c2-c2cc(C(F)F)no2)ncn1 [Compound 2.003],"percentage damage caused to the plant, five-point scale, AMARE",[1],3 (3=41-60%)
same,"percentage damage caused to the plant, five-point scale, ECHCG",[2],4 (4=61-80%)
same,"percentage damage caused to the plant, five-point scale, SETFA",[3],4 (4=61-80%)
same,"percentage damage caused to the plant, five-point scale, AMARE",[4],5 (5=81-100%)
same,"percentage damage caused to the plant, five-point scale, ECHCG",[5],5 (5=81-100%)
same,"percentage damage caused to the plant, five-point scale, SETFA",[6],5 (5=81-100%)
"COc1cc(Oc2cccc(F)c2-c2cc(C(F)F)no2)ncn1 [Compound 2.017, 3-(difluoromethyl)-5-[2-fluoro-6-(6-methoxypyrimidin-4-yl)oxy-phenyl]isoxazole]","percentage damage caused to the plant, five-point scale, AMARE",[1],4 (4=61-80%)
same,"percentage damage caused to the plant, five-point scale, ECHCG",[2],4 (4=61-80%)
same,"percentage damage caused to the plant, five-point scale, SETFA",[3],4 (4=61-80%)
same,"percentage damage caused to the plant, five-point scale, AMARE",[4],5 (5=81-100%)
same,"percentage damage caused to the plant, five-point scale, ECHCG",[5],5 (5=81-100%)
same,"percentage damage caused to the plant, five-point scale, SETFA",[6],5 (5=81-100%)
Cc1cc(Oc2cccc(Cl)c2-c2cc(C(F)F)no2)ncn1 [Compound 2.007],"percentage damage caused to the plant, five-point scale, AMARE",[1],2 (2=21-40%)
same,"percentage damage caused to the plant, five-point scale, ECHCG",[2],4 (4=61-80%)
same,"percentage damage caused to the plant, five-point scale, SETFA",[3],4 (4=61-80%)
same,"percentage damage caused to the plant, five-point scale, AMARE",[4],4 (4=61-80%)
same,"percentage damage caused to the plant, five-point scale, ECHCG",[5],5 (5=81-100%)
same,"percentage damage caused to the plant, five-point scale, SETFA",[6],5 (5=81-100%)
Cc1cc(Oc2cccc(Br)c2-c2cc(C(F)F)no2)ncn1 [Compound 2.006],"percentage damage caused to the plant, five-point scale, AMARE",[1],1 (1=0-20%)
same,"percentage damage caused to the plant, five-point scale, ECHCG",[2],3 (3=41-60%)
same,"percentage damage caused to the plant, five-point scale, SETFA",[3],3 (3=41-60%)
same,"percentage damage caused to the plant, five-point scale, AMARE",[4],2 (2=21-40%)
same,"percentage damage caused to the plant, five-point scale, ECHCG",[5],5 (5=81-100%)
same,"percentage damage caused to the plant, five-point scale, SETFA",[6],4 (4=61-80%)
